Results taken from patent US8017612B2, “Piperazine compound and use thereof as a HCV polymerase inhibitor” (priority 2006, dated 2011).

Assays:
[1] = molecular target: T1, HCV polymerase (NS5B) type 1a (Hepatitis C virus genotype 1a, UniProt P26664); assay: Assay of enzyme (HCV polymerase) inhibitory activity, type 1a enzyme; format: biochemical, HCV type 1a (cloned from the blood of patients); conditions: HCV polymerase inhibitory activity IC50, 1a, type 1a enzyme
T1 construct: made in house; host or cells: Escherichia coli (by the 'similar method' of the 1b enzyme)
Method in brief: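 NS5B Δ47 C-term His6 (type 1a, 1.5 μg/ml); substrate RNA 5 μg/ml; ATP/GTP/CTP 50 μM, UTP 2 μM + [5,6-3H]UTP; Tris pH 7.5, MgCl2 5 mM; 25° C, 60 min. TCA/pyrophosphate stop, GF/B filter, scintillation. IC50 vs no-compound control.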

[2] = molecular target: T2, HCV polymerase (NS5B) type 1b (Hepatitis C virus genotype 1b, UniProt P26663); assay: Assay of enzyme (HCV polymerase) inhibitory activity, type 1b enzyme; format: biochemical, HCV BK strain (type 1b); conditions: HCV polymerase inhibitory activity IC50, 1b, type 1b enzyme
T2 construct: a region encoding NS5B (J Virol 1991 March, 65(3), 1105-13, 544 amino acids after deletion of 47 amino acids on the C-terminal); 6xHis (C); made in house; host or cells: Escherichia coli
Method in brief: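 Rxn: NS5B 1b (BK, ΔC47, His6) 0.5 μg/ml; substrate RNA 5 μg/ml; ATP/GTP/CTP 50 μM, UTP 2 μM + [5,6-3H]UTP; 20 mM Tris pH 7.5, 5 mM MgCl2, 50 mM NaCl, 1 mM EDTA/DTT. 25 °C, 60 min. Stop with TCA/pyrophosphate, filter, scintillation count; IC50 vs. untreated.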

Structure (SMILES)	IC50 [1]	IC50 [2]
CCCc1ccc(CNC(=O)[C@H]2CN(c3nc(Cl)c(C(=O)O)s3)CCN2S(=O)(=O)c2ccc(CC)cc2)cc1 [Example 868, 4-chloro-2-[(R)-4-(4-ethyl-benzenesulfonyl)-3-(4-propyl-benzylcarbamoyl)-piperazin-1-yl]-thiazole-5-carboxylic acid]	< 100 nM	< 100 nM
O=C(NCc1ccc(OC(F)(F)F)cc1)[C@H]1CN(c2nc3cnnc(Cl)c3s2)CCN1S(=O)(=O)c1ccc(OC(F)(F)F)cc1 [Example 869, (R)-4-(7-chloro-thiazolo[4,5-d]pyridazin-2-yl)-1-(4-trifluoromethoxy-benzenesulfonyl)-piperazine-2-carboxylic acid 4-trifluoromethoxy-benzylamide]	< 100 nM	< 100 nM
O=C(NCc1ccc(OC(F)(F)F)cc1)[C@H]1CN(c2nc3c(CO)n[nH]c(=O)c3s2)CCN1S(=O)(=O)c1ccc(OC(F)(F)F)cc1 [Example 870, (R)-4-(4-hydroxymethyl-7-oxo-6,7-dihydro-thiazolo[4,5-d]pyridazin-2-yl)-1-(4-trifluoromethoxy-benzenesulfonyl)-piperazine-2-carboxylic acid 4-trifluoromethoxy-benzylamide]	< 100 nM	< 100 nM
CC(C)NC(=O)c1cncc2ncc(N3CCN(S(=O)(=O)c4ccc(OC(F)(F)F)cc4)[C@@H](C(=O)NCc4ccc(OC(F)(F)F)cc4)C3)nc12 [Example 871, 2-[(R)-4-(4-trifluoromethoxy-benzenesulfonyl)-3-(4-trifluoromethoxy-benzylcarbamoyl)-piperazin-1-yl]-pyrido[3,4-b]pyrazine-8-carboxylic acid isopropylamide]	< 100 nM	< 100 nM
N#Cc1cncc2ncc(N3CCN(S(=O)(=O)c4ccc(OC(F)(F)F)cc4)[C@@H](C(=O)NCc4ccc(OC(F)(F)F)cc4)C3)nc12 [Example 872, (R)-4-(8-cyano-pyrido[3,4-b]pyrazin-2-yl)-1-(4-trifluoromethoxy-benzenesulfonyl)-piperazine-2-carboxylic acid 4-trifluoromethoxy-benzylamide]	< 100 nM	< 100 nM
O=C(NCc1ccc(OC(F)(F)F)cc1)[C@H]1CN(c2nc3cn[nH]c(=O)c3s2)CCN1S(=O)(=O)c1ccc(Cl)cc1 [Example 873, (R)-1-(4-chloro-benzenesulfonyl)-4-(7-oxo-6,7-dihydro-thiazolo[4,5-d]pyridazin-2-yl)-piperazine-2-carboxylic acid 4-trifluoromethoxy-benzylamide]	< 100 nM	< 100 nM
O=C(O)c1n[nH]c(=O)c2sc(N3CCN(S(=O)(=O)c4ccc(OC(F)(F)F)cc4)[C@@H](C(=O)NCc4ccc(OC(F)(F)F)cc4)C3)nc12 [Example 874, 7-oxo-2-[(R)-4-(4-trifluoromethoxy-benzenesulfonyl)-3-(4-trifluoromethoxy-benzylcarbamoyl)-piperazin-1-yl]-6,7-dihydro-thiazolo[4,5-d]pyridazine-4-carboxylic acid]	< 100 nM	< 100 nM
CNC(=O)c1n[nH]c(=O)c2sc(N3CCN(S(=O)(=O)c4ccc(OC(F)(F)F)cc4)[C@@H](C(=O)NCc4ccc(OC(F)(F)F)cc4)C3)nc12 [Example 875, 7-oxo-2-[(R)-4-(4-trifluoromethoxy-benzenesulfonyl)-3-(4-trifluoromethoxy-benzylcarbamoyl)-piperazin-1-yl]-6,7-dihydro-thiazolo[4,5-d]pyridazine-4-carboxylic acid methylamide]	< 100 nM	< 100 nM
NC(=O)c1n[nH]c(=O)c2sc(N3CCN(S(=O)(=O)c4ccc(OC(F)(F)F)cc4)[C@@H](C(=O)NCc4ccc(OC(F)(F)F)cc4)C3)nc12 [Example 876, 7-oxo-2-[(R)-4-(4-trifluoromethoxy-benzenesulfonyl)-3-(4-trifluoromethoxy-benzylcarbamoyl)-piperazin-1-yl]-6,7-dihydro-thiazolo[4,5-d]pyridazine-4-carboxylic acid amide]	< 100 nM	< 100 nM
O=C(NCc1ccc(OC(F)(F)F)cc1)[C@H]1CN(c2nc3cn[nH]c(=O)c3s2)CCN1S(=O)(=O)c1ccc(C(F)(F)F)cc1 [Example 877, (R)-4-(7-oxo-6,7-dihydro-thiazolo[4,5-d]pyridazin-2-yl)-1-(4-trifluoromethyl-benzenesulfonyl)-piperazine-2-carboxylic acid 4-trifluoromethoxy-benzylamide]	< 100 nM	< 100 nM
O=C(NCc1ccc(OC(F)(F)F)cc1)[C@H]1CN(c2nc3nc(O)ncc3s2)CCN1S(=O)(=O)c1ccc(OC(F)(F)F)cc1 [Example 878, (R)-4-(5-hydroxy-thiazolo[4,5-d]pyrimidin-2-yl)-1-(4-trifluoromethoxy-benzenesulfonyl)-piperazine-2-carboxylic acid 4-trifluoromethoxy-benzylamide]	< 100 nM	< 100 nM
O=C(NCc1ccc(OC(F)(F)F)cc1)[C@H]1CN(c2nc3cnncc3s2)CCN1S(=O)(=O)c1ccc(OC(F)(F)F)cc1 [Example 879, (R)-4-thiazolo[4,5-d]pyridazin-2-yl-1-(4-trifluoromethoxy-benzenesulfonyl)-piperazine-2-carboxylic acid 4-trifluoromethoxy-benzylamide]	< 100 nM	< 100 nM
CCCc1ccc(CNC(=O)[C@H]2CN(c3nc4c(C(=O)OCC)nnc(Cl)c4s3)CCN2S(=O)(=O)c2ccc(CC)cc2)cc1 [Example 880, 7-chloro-2-[(R)-4-(4-ethyl-benzenesulfonyl)-3-(4-propyl-benzylcarbamoyl)-piperazin-1-yl]-thiazolo[4,5-d]pyridazine-4-carboxylic acid ethyl ester]	< 100 nM	< 100 nM
O=C(NCc1ccc(OC(F)(F)F)cc1)[C@H]1CN(c2nc3cn[nH]c(=O)c3s2)CCN1S(=O)(=O)c1ccc(Br)cc1 [Example 881, (R)-1-(4-bromo-benzenesulfonyl)-4-(7-oxo-6,7-dihydro-thiazolo[4,5-d]pyridazin-2-yl)-piperazine-2-carboxylic acid 4-trifluoromethoxy-benzylamide]	< 100 nM	< 100 nM
COCC1(c2ccc(CNC(=O)[C@H]3CN(c4nc5cn[nH]c(=O)c5s4)CCN3S(=O)(=O)c3ccc(OC(F)(F)F)cc3)cc2)CC1 [Example 882, (R)-4-(7-oxo-6,7-dihydro-thiazolo[4,5-d]pyridazin-2-yl)-1-(4-trifluoromethoxy-benzenesulfonyl)-piperazine-2-carboxylic acid 4-(1-methoxymethyl-cyclopropyl)-benzylamide]	100 to 1000 nM	< 100 nM
CCN(C)c1ccc(CNC(=O)[C@H]2CN(c3nc4cn[nH]c(=O)c4s3)CCN2S(=O)(=O)c2ccc(OC(F)(F)F)cc2)cc1 [Example 883, (R)-4-(7-oxo-6,7-dihydro-thiazolo[4,5-d]pyridazin-2-yl)-1-(4-trifluoromethoxy-benzenesulfonyl)-piperazine-2-carboxylic acid 4-(ethyl-methyl-amino)-benzylamide]	< 100 nM	< 100 nM
COc1ccc(S(=O)(=O)N2CCN(c3nc4cn[nH]c(=O)c4s3)C[C@@H]2C(=O)NCc2ccc(OC(F)(F)F)cc2)cc1 [Example 884, (R)-1-(4-methoxy-benzenesulfonyl)-4-(7-oxo-6,7-dihydro-thiazolo[4,5-d]pyridazin-2-yl)-piperazine-2-carboxylic acid 4-trifluoromethoxy-benzylamide]	< 100 nM	< 100 nM
O=C(NCc1ccc(OC(F)(F)F)cc1)[C@H]1CN(c2nc3cncnc3s2)CCN1S(=O)(=O)c1ccc(OC(F)(F)F)cc1 [Example 885, (R)-4-thiazolo[5,4-d]pyrimidin-2-yl-1-(4-trifluoromethoxy-benzenesulfonyl)-piperazine-2-carboxylic acid 4-trifluoromethoxy-benzylamide]	< 100 nM	< 100 nM
O=C(NCc1ccc(OC(F)(F)F)cc1)[C@H]1CN(c2nc3ncncc3s2)CCN1S(=O)(=O)c1ccc(C(F)(F)F)cc1 [Example 886, (R)-4-thiazolo[4,5-d]pyrimidin-2-yl-1-(4-trifluoromethyl-benzenesulfonyl)-piperazine-2-carboxylic acid 4-trifluoromethoxy-benzylamide]	< 100 nM	< 100 nM
O=C(NCc1ccc(OC(F)(F)F)cc1)[C@H]1CN(c2nc3nc(Cl)ncc3s2)CCN1S(=O)(=O)c1ccc(C(F)(F)F)cc1 [Example 887, (R)-4-(5-chloro-thiazolo[4,5-d]pyrimidin-2-yl)-1-(4-trifluoromethyl-benzenesulfonyl)-piperazine-2-carboxylic acid 4-trifluoromethoxy-benzylamide]	< 100 nM	< 100 nM
O=C(NCc1ccc(OC(F)(F)F)cc1)[C@H]1CN(c2nc3nc(O)nc(O)c3s2)CCN1S(=O)(=O)c1ccc(OC(F)(F)F)cc1 [Example 888, (R)-4-(5,7-dihydroxy-thiazolo[4,5-d]pyrimidin-2-yl)-1-(4-trifluoromethoxy-benzenesulfonyl)-piperazine-2-carboxylic acid 4-trifluoromethoxy-benzylamide]	< 100 nM	< 100 nM
